Measurements from patent publication US12448375B2, “Kinase inhibitors for the treatment of neurodegenerative diseases” (Ohio State Innovation Foundation, priority 2019, dated 2025).
Where two headings read alike, the source gives them in different places.

Assays:
p38a = target: T1, p38a (Homo sapiens, UniProt Q16539); assay: HotSpot Kinase Assay, P38a; assay type: biochemical; details: HotSpot radiometric assay, 33P-ATP
T1 construct: purchased Reaction Biology Corp
Method: (§1) The anti-JNK3 activity of compounds prepared as in the previous examples was evaluated using a Reaction Biology Corp. HotSpot Kinase Assay. Base reaction buffer was 20 mM HEPES (4-(2-hydroxyethyl)-1-piperazineethanesulfonic acid) at pH 7.5 with 10 mM MgCl2, 1 mM EGTA (ethylene glycol-bis(β-aminoethyl ether)-N,N,N′,N′-tetracetic acid), 0.02% Brij™ 35, 0.02 mg/mL BSA (bovine serum albumin), 0.1 mM Na3VO4, 2 mM DTT (dithiothreitol), and 1% DMSO. Required cofactors were added individually to each kinase reaction.
(§2) Activity against related enzymes JNK1 and P38a was further assessed using the same assay.

JNK3 = target: T2, JNK3 (Homo sapiens, UniProt P53779); assay: HotSpot Kinase Assay (Reaction Biology Corp.), anti-JNK3 activity; assay type: biochemical; details: HotSpot radiometric assay, 33P-ATP
T2 construct: purchased Reaction Biology Corp
T2 sequence (P53779 whole entry): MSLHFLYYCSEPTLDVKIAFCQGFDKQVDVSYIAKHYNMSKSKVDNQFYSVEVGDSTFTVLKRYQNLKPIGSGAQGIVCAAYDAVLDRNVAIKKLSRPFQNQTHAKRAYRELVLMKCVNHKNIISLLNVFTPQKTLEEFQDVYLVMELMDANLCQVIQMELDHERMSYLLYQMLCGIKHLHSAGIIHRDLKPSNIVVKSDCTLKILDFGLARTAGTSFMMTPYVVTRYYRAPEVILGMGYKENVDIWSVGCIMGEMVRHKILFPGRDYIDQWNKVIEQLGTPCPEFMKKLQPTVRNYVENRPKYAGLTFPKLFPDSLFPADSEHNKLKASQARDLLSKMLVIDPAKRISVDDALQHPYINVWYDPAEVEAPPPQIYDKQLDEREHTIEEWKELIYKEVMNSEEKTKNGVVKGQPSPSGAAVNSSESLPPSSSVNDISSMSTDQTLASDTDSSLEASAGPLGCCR
Method: as §1, §2

JNK1 = target: T3, JNK1 (Homo sapiens, UniProt P45983); assay: HotSpot Kinase Assay, JNK1; assay type: biochemical; details: HotSpot radiometric assay, 33P-ATP
T3 construct: purchased Reaction Biology Corp
T3 sequence (P45983 whole entry): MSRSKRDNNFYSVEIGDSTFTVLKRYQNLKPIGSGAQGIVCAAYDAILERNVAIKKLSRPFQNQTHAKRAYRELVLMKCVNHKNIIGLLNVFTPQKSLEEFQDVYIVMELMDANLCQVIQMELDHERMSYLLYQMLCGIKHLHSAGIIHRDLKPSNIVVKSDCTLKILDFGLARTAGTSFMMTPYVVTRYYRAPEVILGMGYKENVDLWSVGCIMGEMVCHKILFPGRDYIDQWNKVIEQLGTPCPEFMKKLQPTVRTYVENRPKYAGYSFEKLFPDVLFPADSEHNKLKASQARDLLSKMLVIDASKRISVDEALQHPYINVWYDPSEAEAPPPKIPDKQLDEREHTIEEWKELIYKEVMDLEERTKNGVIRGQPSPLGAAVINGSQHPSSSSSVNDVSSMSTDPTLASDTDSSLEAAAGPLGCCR
Method: as §1, §2

[1] = test system: c-jun phosphorylation in SH-SY5Y human neuroblastoma cell line; assay: In Cell Western Assay, p-c-jun after TNFa; assay type: cell-based; details: SH-SY5Y cells, 25 ng/ml TNFa 1 hour, read-out: Phosphoryl. in SH-SY5Y
Method: SH-SY5Y human neuroblastoma cell line was utilized for the assay. […] Next day, cells were starved of serum for 2 hours by media replacement with serum free DMEM:F12. Cells were then pretreated with inhibitors in DMEM:F12 for 30 min, which was followed by the addition of 25 ng/ml of TNFa for 1 hour. At the end of incubation, cells were fixed with 3% paraformaldehyde for 20 min at room temperature. Following three washes with 0.1 M phosphate buffer (pH 7.0) with shaking during washes, cells were treated with Licor blocking buffer (1:1 dilution in PBS with 0.3% Triton X-100) for 1 hour on a shaker. […] Next day, cells were washed with PBS containing 0.3% Triton X-100 for 5 min each three times with shaking. […] Following three 5 min washes, cells were incubated for nuclei staining with Alexa 680 succinidimyl ester (Thermofisher cat #, A20008) at 1/40,000 dilution for 15 min with shaking and subsequent three 5 min washes. P-c-jun and nuclei signals were detected using Odyssey LiCor Infrared scanner. The p-c-jun signal of each well was normalized to the cell number using nuclei signal.

T1 sequence (Q16539 whole entry): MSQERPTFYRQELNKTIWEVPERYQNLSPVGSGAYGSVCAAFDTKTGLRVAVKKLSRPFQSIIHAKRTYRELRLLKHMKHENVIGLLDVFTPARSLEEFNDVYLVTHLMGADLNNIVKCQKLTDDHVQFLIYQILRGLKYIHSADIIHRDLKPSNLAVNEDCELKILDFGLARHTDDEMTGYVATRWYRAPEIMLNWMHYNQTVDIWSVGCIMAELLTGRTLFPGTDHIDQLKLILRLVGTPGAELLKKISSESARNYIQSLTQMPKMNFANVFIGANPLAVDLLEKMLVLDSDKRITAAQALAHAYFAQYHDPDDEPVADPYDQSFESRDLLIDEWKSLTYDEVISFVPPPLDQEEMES

Structure (SMILES) | IC50 (p38a) [nM] | IC50 (JNK3) [nM] | IC50 (JNK1) [nM] | IC50 ([1]; printed as a numeric range) [nM] | IC50 [1] [nM]
CNC(=O)c1cc(-n2ncc3cc(Nc4ccccc4Cl)ncc32)cs1 [Compound 6, 4-(5-((2-chlorophenyl)amino)-1H-pyrazolo[3,4-c]pyridin-1-yl)-N-methylthiophene-2-carboxamide] | 200 to 1000 | < 200 | > 1000 | 10 to 100 | 
[2H]C([2H])([2H])N1CC[C@H](NC(=O)c2cc(-n3ncc4cc(Oc5ccccc5Cl)ccc43)cs2)C1 [Compound 9, (S)-4-(5-(2-chlorophenoxy)-1H-indazol-1-yl)-N-(1-(methyl-d3)pyrrolidin-3-yl)thiophene-2-carboxamide] | > 1000 | < 200 | > 1000 |  | > 1000
CNC(=O)c1cc(-n2ncc3cc(Nc4ccccc4Cl)c(F)cc32)cs1 [Compound 28, 4-(5-((2-chlorophenyl)amino)-6-fluoro-1H-indazol-1-yl)-N-methylthiophene-2-carboxamide] | < 200 | < 200 | 200 to 1000 |  | < 200
[2H]C([2H])([2H])N1CC[C@H](NC(=O)c2cc(-n3ncc4cc(Nc5ccccc5Cl)ccc43)cs2)C1 [Compound 30, (S)-4-(5-((2-chlorophenyl)amino)-1H-indazol-1-yl)-N-(1-(methyl-d3)pyrrolidin-3-yl)thiophene-2-carboxamide] | 200 to 1000 | < 200 | 200 to 1000 |  | < 200
[2H]C([2H])([2H])N1CC[C@H](NC(=O)c2cc(-n3ncc4cc(Nc5ccccc5Cl)c(F)cc43)cs2)C1 [Compound 36, (S)-4-(5-((2-chlorophenyl)amino)-6-fluoro-1H-indazol-1-yl)-N-(1-(methyl-d3)pyrrolidin-3-yl)thiophene-2-carboxamide] | 200 to 1000 | < 200 | 200 to 1000 |  | < 200
CNC(=O)c1cc(-n2ncc3nc(Nc4ccccc4Cl)ccc32)cs1 [Compound 50, 4-(5-((2-chlorophenyl)amino)-1H-pyrazolo[4,3-b]pyridin-1-yl)-N-methylthiophene-2-carboxamide] | 200 to 1000 | < 200 | > 1000 |  | < 200
CNC(=O)c1cc(-n2ncc3cc(Nc4cccc(OC)c4Cl)c(C)nc32)cs1 [Compound 81, 4-(5-((2-chloro-3-methoxyphenyl)amino)-6-methyl-1H-pyrazolo[3,4-b]pyridin-1-yl)-N-methylthiophene-2-carboxamide] | 200 to 1000 | < 200 | 200 to 1000 |  | 
Cc1nc2c(cnn2-c2csc(C(=O)NC3COC3)c2)cc1Nc1cccc(F)c1Cl [Compound 100, 4-(5-((2-chloro-3-fluorophenyl)amino)-6-methyl-1H-pyrazolo[3,4-b]pyridin-1-yl)-N-(oxetan-3-yl)thiophene-2-carboxamide] | 200 to 1000 | < 200 | 200 to 1000 |  | 
CNC(=O)c1cc(-n2ncc3cc(Nc4c(Cl)cccc4OC)cnc32)cs1 [Compound 109, 4-(5-((2-chloro-6-methoxyphenyl)amino)-1H-pyrazolo[3,4-b]pyridin-1-yl)-N-methylthiophene-2-carboxamide] | 200 to 1000 | < 200 | > 1000 |  | 
CNC(=O)c1cc(-n2ncc3cc(Nc4c(F)cccc4Cl)c(F)cc32)cs1 [Compound 111, 4-(5-((2-chloro-6-fluorophenyl)amino)-6-fluoro-1H-indazol-1-yl)-N-methylthiophene-2-carboxamide] | 200 to 1000 | < 200 | > 1000 |  | 
CNC(=O)c1cc(-n2ncc3cc(Nc4c(F)cccc4Cl)c(COC)cc32)cs1 [Compound 152] | 200 to 1000 | < 200 | 200 to 1000 |  | 
